Counter-ions that a name gives are not always drawn.
Experiments:
Type in all cases: in vivo, mouse
[1] = system: OCI-Ly10 human DLBCL xenografts; assay: Antitumor activity in SCID mice bearing OCI-Ly10 human DLBCL xenografts, ibrutinib or bendamustine combination (Example 5); settings: Day 21; Compound A 60 mg/kg PO QD; ibrutinib 6 mg/kg PO QD; bendamustine 1 mg/kg IV BIW (6 doses); alone or combined with Compound A; citrate
TMD8 DLBCL xenografts = assay: Antitumor activity in CB17 SCID mice bearing TMD8 DLBCL xenografts, gemcitabine combination (Example 8); settings: Day 14, alone or combined
Protocol: Tumor growth inhibition was calculated on Day 14 of the study. The last measurement was taken on Day 40 of the study.
(§1) Experimental design: Female CB17 SCID mice (Taconic Biosciences; weight at treatment start was 19 g) were inoculated subcutaneously in the flank (cell suspension) with 5.0×10^6 TMD8 cells. Tumor growth was monitored with vernier calipers. Tumor volume was calculated using the formula V=W^2×L/2, where V=volume, W=width and L=length of the tumor. When the mean tumor volume reached approximately 215 mm^3, the animals were randomized into treatment groups (n=8/group). […] Tumor growth and body weight were measured twice per week. Tumor growth inhibition and body weight change were calculated on Day 14 of treatment.
(§2) Statistical analysis: The differences in the tumor growth trends over time between pairs of treatment groups were assessed using linear mixed effects regression models. These models account for the fact that each animal was measured at multiple time points. A separate model was fit for each comparison, and the areas under the curve (AUC) for each treatment group were calculated using the predicted values from the model. The percent decrease in AUC (dAUC) relative to the reference group was then calculated. […] Further details regarding pairwise comparisons are provided in the Example 2.
Drug combinations were assessed for synergy using observed AUC values. The change in AUC relative to the control was calculated for both single agent treatment groups as well as the combination group. The interaction between the two compounds was then assessed by comparing the change in AUC observed in the combination group to the sum of the changes observed in both single agents. The results can be divided into four categories: synergistic, additive, sub-additive, and antagonistic. Further details regarding combination analysis are provided in the Example 2.
(§3) Once a final analysis was selected, the tumor measurements observed on a date pre-specified by the researcher (typically the last day of treatment) were analyzed to assess tumor growth inhibition. For this analysis, a T/C ratio was calculated for each animal by dividing the tumor measurement for the given animal by the mean tumor measurement across all control animals. The T/C ratios across a treatment group were compared to the T/C ratios of the control group using a two-tailed Welch's t-test.

[2] = system: OCI-Ly10 human lymphoma xenografts; assay: Antitumor activity in SCID mice bearing OCI-Ly10 human lymphoma xenografts, lenalidomide combination (Example 10); settings: alone or combined
OCI-LY 10 xenografts = assay: Antitumor activity in CB17 SCID mice bearing OCI-LY10 xenografts, ABT-199 combination (Example 11); settings: Day 21, alone or combined
Protocol: Tumor growth inhibition was calculated on Day 21 of the study. The last measurement was taken on Day 46 of the study.
as §1, with “(Charles River Laboratories, about 21 g” for “(Taconic Biosciences; weight”, “start)” for “start was 19 g)”, “4.0×10^6 OCI-Ly10” for “5.0×10^6 TMD8”, “175” for “215”, “(n=5/group).” for “(n=8/group).”, “21” for “14”
as §2
Drug combinations were assessed for synergy using observed AUC values. The change in AUC relative to the control was calculated for both single agent treatment groups as well as the combination group. The interaction between the two compounds was then assessed by comparing the change in AUC observed in the combination group to the sum of the changes observed in both single agents. The results can be divided into four categories: synergistic, additive, sub-additive, and antagonistic. Further details regarding combination analyses are provided in the Example 2.
as §3

[3] = system: WSU-Luc human lymphoma xenografts; assay: Antitumor activity in SCID mice bearing WSU-Luc human lymphoma xenografts, ibrutinib combination (Example 12); settings: Day 20, alone or combined
Protocol: The study ended on Day 20 of dosing.
Tumor growth was monitored with vernier calipers. Tumor volume was calculated using the formula V=W^2×L/2, where V=volume, W=width and L=length of the tumor. When the mean tumor volume reached approximately 190 mm^3, the animals were randomized into treatment groups (n=8/group). […] Tumor growth and body weight were measured twice per week. Tumor growth inhibition and body weight change were calculated on Day 20 of treatment.
Statistical analysis: The differences in the tumor growth trends over time between pairs of treatment groups were assessed using linear mixed effects regression models. These models account for the fact that each animal was measured at multiple time points. A separate model was fit for each comparison, and the areas under the curve (AUC) for each treatment group were calculated using the predicted values from the model. The percent decrease in AUC (dAUC) relative to the reference group was then calculated.
The change in AUC relative to the control was calculated for both single agent treatment groups as well as the combination group. […] The results can be divided into four categories: synergistic, additive, sub-additive, and antagonistic.
For this analysis, a T/C ratio was calculated for each animal by dividing the tumor measurement for the given animal by the mean tumor measurement across all control animals. The T/C ratios across a treatment group were compared to the T/C ratios of the control group using a two-tailed Welch's t-test.

[4] = system: Ly10 human lymphoma xenografts; assay: Antitumor activity in SCID mice bearing Ly10 xenografts, rituximab combination (Example 13); settings: alone or combined
[5] = Body weight and tolerability, OCI-LY10 gemcitabine study (Example 7); settings: alone or combined
Protocol: (§4) Experimental design: Female CB17 SCID mice (Taconic Biosciences; weight at treatment start was 20 g) were inoculated subcutaneously in the flank (cell suspension) with 4.0×10^6 OCI-Ly10 cells. Tumor volume was calculated using the formula V=W^2×L/2, where V=volume, W=width and L=length of the tumor. When the mean tumor volume reached approximately 199 mm^3, the animals were randomized into 6 treatment groups (n=8/group). […] Tumor growth and body weight were measured twice per week. Tumor growth inhibition and body weight change were calculated on Day 21 of treatment.

[6] = Body weight and tolerability, OCI-LY10 ABT-199 study (Example 11); settings: alone or combined
Protocol: as §4, with “(Charles River Laboratories, about 21 g” for “(Taconic Biosciences; weight”, “start)” for “start was 20 g)”, “cells. Tumor growth was monitored with vernier calipers.” for “cells.”, “175” for “199”, “into” for “into 6”, “(n=5/group).” for “(n=8/group).”

[7] = Compound A 60 mg/kg, ABT-199 12.5 mg/kg
[8] = Compound A 60 mg/kg, ibrutinib 20 mg/kg
[9] = Day 21, Compound A 60 mg/kg PO QD x21, rituximab 1 mg/kg IV QW x3

## Cn1cc(-c2nc(N[C@@H]3CCCC[C@@H]3N)c(F)c3c2C(=O)NC3)cn1 [Compound A, 6-((1R,2S)-2-aminocyclohexylamino)-7-fluoro-4-(1-methyl-1H-pyrazol-4-yl)-1H-pyrrolo[3,4-c]pyridine-3 (2H)-one citrate]
[1]
  TGI: 38.8%
TMD8 DLBCL xenografts; Compound A 60 mg/kg PO QD, gemcitabine 5 mg/kg IP Q3D x4
  Mean Tumor Volume (mm^3) ± SEM: 957.2 ± 82.2 mm^3
TMD8 DLBCL xenografts; Compound A 60 mg/kg, gemcitabine 5 mg/kg
  T/C: 1.07
[2]; Day 21, Compound A 60 mg/kg PO QD x21, lenalidomide 10 mg/kg PO QD x21, citrate
  TGI: 43.6%
[2]; vs vehicle, Compound A 60 mg/kg, lenalidomide 10 mg/kg
  ΔAUC: 34.7 (p < 0.001)
OCI-LY 10 xenografts; Compound A 60 mg/kg PO QD, ABT-199 12.5 mg/kg PO QD
  TGI (%): 61.0%
OCI-LY 10 xenografts; [7]
  Mean Tumor Volume (mm^3) ± SEM: 408 ± 104.9 mm^3
  T/C: 0.39
[3]; Compound A 60 mg/kg PO QD, ibrutinib 20 mg/kg PO QD
  TGI (%): 37.6%
[3]; [8]
  Mean Tumor Volume (mm^3) ± SEM: 680.4 ± 120.1 mm^3
  T/C: 0.62
[4]; [9]
  Mean Tumor Volume (mm^3) ± SEM at Day 21: 217.6 ± 25.6 mm^3
  TGI (%): 76.0%
[4]; vs vehicle, Compound A 60 mg/kg, rituximab 1 mg/kg
  dAUC: 122.4
[5]; Compound A 60 mg/kg PO QD 21 d, gemcitabine 2.5 mg/kg IP Q3D (4 doses)
  % BW Change (Day Maximum): 6.8 (21) %
[5]; Compound A 60 mg/kg, gemcitabine 2.5 mg/kg
  Number of animals removed: 0
[6]; Compound A 60 mg/kg PO QD 21 d, ABT-199 12.5 mg/kg PO QD 21 d
  % BW Change (Day Maximum): −0.0 (3) %
[6]; [7]
  Number of animals removed: 0

Source: US20190231757A1, “COMBINATION OF SPLEEN TYROSINE KINASE INHIBITORS AND OTHER THERAPEUTIC AGENTS” (Takeda Pharmaceutical Company Limited, priority 2016, published 2019)
